Common to all, as to format: biochemical
The target of one assay is Pim-1 (Homo sapiens (Human), UniProt P11309). As to the kind of experiment: Pim-1 kinase assay. The note with it: 1 mM ATP; read-out: PIM1 IC50. The method in brief: (§1)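 Enzyme at 2.5 pM (Pim-1) or 1.25 pM (Pim-3) reacted 1 h at 25° C with 1 mM ATP and 0.05 μM biotinylated BAD peptide, pH 7.5. Phospho-Ser112 BAD detected by antibody/Protein-A acceptor and streptavidin donor bead proximity signal after EDTA quench and 1 h dark incubation.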
Pim-1, sequence (P11309 whole entry): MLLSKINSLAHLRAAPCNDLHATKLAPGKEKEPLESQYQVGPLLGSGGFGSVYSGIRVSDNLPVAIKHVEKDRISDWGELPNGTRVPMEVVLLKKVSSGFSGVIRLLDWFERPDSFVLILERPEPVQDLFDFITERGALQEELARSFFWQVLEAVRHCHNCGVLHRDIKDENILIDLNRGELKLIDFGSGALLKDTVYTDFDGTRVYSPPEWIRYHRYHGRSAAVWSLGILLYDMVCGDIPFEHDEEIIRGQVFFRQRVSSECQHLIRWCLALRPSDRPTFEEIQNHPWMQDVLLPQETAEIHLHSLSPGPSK

The target in a further assay is Pim-2 (Homo sapiens (Human), UniProt Q9P1W9). The experiment in a line: Pim-2 kinase assay. The note with it: 1 mM ATP; read-out: PIM2 IC50. The method in brief:
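TR-FRET assay with 1 nM enzyme, 0.05 μM fluorescein-CREBtide and 1 mM ATP in Tris pH 7.5 buffer with MgCl2, DTT, BSA and Tween-20, run 2 h at 25° C. Stopped with EDTA and Tb-labelled anti-CREB pSer133 antibody, then read after 30 min at room temperature.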

Another assay deals with Pim-3 (Homo sapiens (Human), UniProt Q86V86). As to the kind of experiment: Pim-3 kinase assay. The note with it: 1 mM ATP; read-out: PIM3 IC50. The method in brief: as §1

Structures are written as SMILES.

The values below come from US9920032B2, “Heterocyclic compounds useful as pim kinase inhibitors” (Incyte Corporation, priority 2015, dated 2018).

Broadly, the IC50 is the concentration at which inhibition is half-maximal.

Pim-2, sequence (Q9P1W9 whole entry): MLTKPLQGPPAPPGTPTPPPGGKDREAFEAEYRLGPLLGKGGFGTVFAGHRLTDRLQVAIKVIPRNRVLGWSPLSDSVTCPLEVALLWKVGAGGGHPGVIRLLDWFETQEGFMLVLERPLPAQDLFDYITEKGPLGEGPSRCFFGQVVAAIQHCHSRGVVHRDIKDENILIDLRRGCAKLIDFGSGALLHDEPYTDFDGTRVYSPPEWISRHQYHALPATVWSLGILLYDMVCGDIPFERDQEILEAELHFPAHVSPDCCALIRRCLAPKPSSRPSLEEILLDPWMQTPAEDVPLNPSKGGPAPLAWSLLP

Turning to `C[C@@H]1C[C@H](N)C[C@H](c2ccncc2NC(=O)c2ccc(F)c3cc(N4C5CCC4CC5)cnc23)C1` [Example 136, N-(4-((1R,3S,5S)-3-Amino-5-methylcyclohexyl)pyridin-3-yl)-3-(7-azabicyclo[2.2.1]heptan-7-yl)-5-fluoroquinoline-8-carboxamide], the values for the IC50 on Pim-1, at Pim-2 and on Pim-3 were at most 10 nM, at most 100 nM and at most 10 nM, respectively.
As for `C[C@@H]1C[C@H](N)C[C@H](c2ccncc2NC(=O)c2ccc(F)c3cc(N4CCC(O)CC4)cnc23)C1` [Example 44, N-(4-((1R,3S,5S)-3-Amino-5-methylcyclohexyl)pyridin-3-yl)-5-fluoro-3-(4-hydroxypiperidin-1-yl)quinoline-8-carboxamide], the figures for the IC50 on Pim-1, at Pim-2 and on Pim-3 were at most 10 nM, 100 to 1000 nM and at most 10 nM, respectively.
`C[C@@H]1C[C@H](N)C[C@H](c2ccncc2NC(=O)c2ccc(F)c3cc(N4CCOC[C@H]4C)nnc23)C1` [Example 94, N-{4-[(1R,3S,5S)-3-Amino-5-methylcyclohexyl]pyridin-3-yl}-5-fluoro-3-[(3R)-3-methylmorpholin-4-yl]cinnoline-8-carboxamide]: the IC50 on Pim-1 is at most 10 nM; on Pim-2, at most 100 nM; on Pim-3, at most 10 nM.
Take `COc1ccccc1N(C)c1cnc2c(C(=O)Nc3cnccc3[C@@H]3C[C@H](C)C[C@H](N)C3)ccc(F)c2c1` [Example 152, N-(4-((1R,3S,5S)-3-Amino-5-methylcyclohexyl)pyridin-3-yl)-5-fluoro-3-((2-methoxyphenyl)(methyl)amino)quinoline-8-carboxamide]: the IC50 is at most 10 nM at Pim-1, at most 100 nM at Pim-2 and at most 10 nM on Pim-3.
Turning to `CC1CCCCN1c1cc2c(F)ccc(C(=O)Nc3cnccc3[C@@H]3C[C@H](C)C[C@H](N)C3)c2nn1` (stereo partly drawn) [Example 93, N-{4-[(1R,3S,5S)-3-Amino-5-methylcyclohexyl]pyridin-3-yl}-5-fluoro-3-(2-methylpiperidin-1-yl)cinnoline-8-carboxamide], the IC50 at Pim-1 was at most 10 nM; on Pim-2 it was at most 100 nM; at Pim-3, at most 10 nM.
For `C[C@@H]1C[C@H](N)C[C@H](c2ccncc2NC(=O)c2cccc3cc(N(C)CC(F)F)cnc23)C1` [Example 72, N-(4-((1R,3S,5S)-3-Amino-5-methylcyclohexyl)pyridin-3-yl)-3-((2,2-difluoroethyl)(methyl)amino)quinoline-8-carboxamide], the values for the IC50 at Pim-1, at Pim-2 and at Pim-3 were at most 10 nM, 100 to 1000 nM and at most 10 nM, respectively.
`C[C@@H]1C[C@H](N)C[C@H](c2ccncc2NC(=O)c2ccc(F)c3cc(N4CCOC(CO)C4)cnc23)C1` (stereo partly drawn) [Example 132, N-(4-((1R,3S,5S)-3-Amino-5-methylcyclohexyl)pyridin-3-yl)-5-fluoro-3-(2-(hydroxymethyl)morpholino)quinoline-8-carboxamide]: the IC50 at Pim-1 was at most 10 nM; on Pim-2 it was 100 to 1000 nM; on Pim-3, at most 10 nM.
On to `C[C@@H]1C[C@H](N)C[C@H](c2ccncc2NC(=O)c2ccc(F)c3cc(-c4ccccc4C#N)cnc23)C1` [Example 17, N-{4-[(1R,3S,5S)-3-Amino-5-methylcyclohexyl]pyridin-3-yl}-3-(2-cyanophenyl)-5-fluoroquinoline-8-carboxamide], for which the values for the IC50 at Pim-1, on Pim-2 and at Pim-3 were at most 10 nM, 100 to 1000 nM and at most 10 nM, respectively.
Turning to `Cc1nccnc1N(C)c1cnc2c(C(=O)Nc3cnccc3[C@@H]3C[C@H](C)C[C@H](N)C3)ccc(F)c2c1` [Example 149, N-(4-((1R,3S,5S)-3-Amino-5-methylcyclohexyl)pyridin-3-yl)-5-fluoro-3-(methyl(3-methylpyrazin-2-yl)amino)quinoline-8-carboxamide], the half-inhibitory concentration (IC50) at Pim-1 was at most 10 nM; at Pim-2 it was at most 100 nM; on Pim-3 it was at most 10 nM.
Turning to `C[C@@H]1C[C@H](N)C[C@H](c2ccncc2NC(=O)c2ccc(F)c3cc(N4CCN(S(C)(=O)=O)C[C@H]4C)cnc23)C1` [Example 86, N-(4-((1R,3S,5S)-3-Amino-5-methylcyclohexyl)pyridin-3-yl)-5-fluoro-3-((R)-2-methyl-4-(methylsulfonyl)piperazin-1-yl)quinoline-8-carboxamide], the IC50 at Pim-1 was at most 10 nM; on Pim-2, at most 100 nM; at Pim-3 it was at most 10 nM.
For the compound `C[C@@H]1C[C@H](N)C[C@H](c2ccncc2NC(=O)c2ccc(F)c3cc(-c4ccc(C(F)(F)F)nc4)cnc23)C1` [Example 61, N-(4-((1R,3S,5S)-3-Amino-5-methylcyclohexyl)pyridin-3-yl)-5-fluoro-3-(6-(trifluoromethyl)pyridin-3-yl)quinoline-8-carboxamide], the IC50 is at most 10 nM on Pim-1, 1000 to 10000 nM on Pim-2 and 10 to 50 nM at Pim-3.
For `CCOC1CN(c2cnc3c(C(=O)Nc4cnccc4[C@@H]4C[C@H](C)C[C@H](N)C4)ccc(F)c3c2)C1` [Example 122, N-(4-((1R,3S,5S)-3-Amino-5-methylcyclohexyl)pyridin-3-yl)-3-(3-ethoxyazetidin-1-yl)-5-fluoroquinoline-8-carboxamide], the IC50 is at most 10 nM at Pim-1, at most 100 nM on Pim-2 and at most 10 nM at Pim-3.
With `COC1CCCN(c2cnc3c(C(=O)Nc4cnccc4[C@@H]4C[C@H](C)C[C@H](N)C4)ccc(F)c3c2)C1` (stereo in doubt) [Example 12, N-{4-[(1R,3S,5S)-3-Amino-5-methylcyclohexyl]pyridin-3-yl}-5-fluoro-3-[(3S)-3-methoxypiperidin-1-yl]quinoline-8-carboxamide], the IC50 on Pim-1 is at most 10 nM; at Pim-2 it was 100 to 1000 nM; at Pim-3 it was at most 10 nM.
For the compound `COC(=O)N1CCN(c2cnc3c(C(=O)Nc4cnccc4[C@@H]4C[C@H](C)C[C@H](N)C4)ccc(F)c3c2)[C@@H](C)C1` [Example 88, (S)-Methyl 4-(8-(4-((1R,3S,5S)-3-amino-5-methylcyclohexyl)pyridin-3-ylcarbamoyl)-5-fluoroquinolin-3-yl)-3-methylpiperazine-1-carboxylate], the IC50 on Pim-1 is at most 10 nM; at Pim-2 it was at most 100 nM; at Pim-3 it was at most 10 nM.
As to `CO[C@H]1C[C@@H](C)N(c2cnc3c(C(=O)Nc4cnccc4[C@@H]4C[C@H](C)C[C@H](N)C4)ccc(F)c3c2)C1` [Example 158, N-(4-((1R,3S,5S)-3-Amino-5-methylcyclohexyl)pyridin-3-yl)-5-fluoro-3-((2R,4S)-4-methoxy-2-methylpyrrolidin-1-yl)quinoline-8-carboxamide], the IC50 on Pim-1 is at most 10 nM; at Pim-2, at most 100 nM; at Pim-3 it was at most 10 nM.
For the compound `C[C@@H]1C[C@H](N)C[C@H](c2ccncc2NC(=O)c2ccc(F)c3cc(N4CC[C@@H](F)C4)cnc23)C1` [Example 6, N-{4-[(1R,3S,5S)-3-Amino-5-methylcyclohexyl]pyridin-3-yl}-5-fluoro-3-[(3R)-3-fluoropyrrolidin-1-yl]quinoline-8-carboxamide], the concentration for half-maximal inhibition (IC50) at Pim-1 is at most 10 nM; on Pim-2, at most 100 nM; at Pim-3, at most 10 nM.
As to `C[C@@H]1C[C@H](N)C[C@H](c2ccncc2NC(=O)c2ccc(F)c3cc(N4CCCC(O)CC4)cnc23)C1` (stereo partly drawn) [Example 104, N-(4-((1R,3S,5S)-3-Amino-5-methylcyclohexyl)pyridin-3-yl)-5-fluoro-3-(4-hydroxyazepan-1-yl)quinoline-8-carboxamide], the IC50 was at most 10 nM on Pim-1, at most 100 nM at Pim-2 and at most 10 nM on Pim-3.
Take `C[C@@H]1C[C@H](N)C[C@H](c2ccncc2NC(=O)c2ccc(F)c3cc(N4CCOc5cccc(F)c54)cnc23)C1` [Example 120, N-(4-((1R,3S,5S)-3-Amino-5-methylcyclohexyl)pyridin-3-yl)-5-fluoro-3-(5-fluoro-2H-benzo[b][1,4]oxazin-4(3H)-yl)quinoline-8-carboxamide]: the IC50 on Pim-1 is at most 10 nM; at Pim-2, at most 100 nM; at Pim-3 it was at most 10 nM.
In the case of `COC(=O)N1CCCN(c2cnc3c(C(=O)Nc4cnccc4[C@@H]4C[C@H](C)C[C@H](N)C4)ccc(F)c3c2)CC1` [Example 126, Methyl 4-(8-(4-((1R,3S,5S)-3-amino-5-methylcyclohexyl)pyridin-3-ylcarbamoyl)-5-fluoroquinolin-3-yl)-1,4-diazepane-1-carboxylate], the IC50 is at most 10 nM at Pim-1, at most 100 nM at Pim-2 and at most 10 nM at Pim-3.
For the compound `C[C@@H]1C[C@H](N)C[C@H](c2ccncc2NC(=O)c2ccc(F)c3cc(N4CCCCC4C(F)F)cnc23)C1` (stereo partly drawn) [Example 58, N-(4-((1R,3S,5S)-3-Amino-5-methylcyclohexyl)pyridin-3-yl)-3-(2-(difluoromethyl)piperidin-1-yl)-5-fluoroquinoline-8-carboxamide], the IC50 at Pim-1 was at most 10 nM; on Pim-2 it was at most 100 nM; at Pim-3, at most 10 nM.
Turning to `C[C@@H]1C[C@H](N)C[C@H](c2ccncc2NC(=O)c2ccc(F)c3cc(N4CCN(S(=O)(=O)N(C)C)CC4)cnc23)C1` [Example 74, N-(4-((1R,3S,5S)-3-Amino-5-methylcyclohexyl)pyridin-3-yl)-3-(4-(N,N-dimethylsulfamoyl)piperazin-1-yl)-5-fluoroquinoline-8-carboxamide], the IC50 on Pim-1 is at most 10 nM; at Pim-2, 100 to 1000 nM; on Pim-3, at most 10 nM.
